Consider one compound from ChEMBL document CHEMBL5715937, “In vitro activity of Bcr-Abl inhibitors AMN107 and BMS-354825 against clinically relevant imatinib-resistant Abl kinase domain mutants” (Cancer Res, 2005).

The nature of test [1]: Inhibition of BCR-ABL F311L mutant (unknown origin) expressed in mouse BaF3 cells assessed as inhibition of cell growth incubated for 72 hrs by […] CellTiter96 viability analysis.
In test [2] the test system is BaF3. The test can be described thus: Induction of apoptosis in mouse BaF3 cells expressing Bcr-Abl H396R mutant assessed as increase in apoptotic cells at 1500 nM incubated for 72 hrs by Annexin V-phycoerythrin and 7-amino-actinomycin D staining based PCA instrument analysis relative to control. In kind it is functional.
Test [3] is described as follows: cells. Particulars: Mus musculus, BaF3, 3 h; call rule not given here.
The test system of test [4] is BaF3. The experiment in a line: Induction of apoptosis in mouse BaF3 cells expressing Bcr-Abl F317L mutant assessed as increase in apoptotic cells at 1500 nM incubated for 72 hrs by Annexin V-phycoerythrin and 7-amino-actinomycin D staining based PCA instrument analysis relative to control. It counts as functional.
Test [5] is described as follows: Inhibition of BCR-ABL phosphorylation in mouse BaF3 cells incubated for 3 hrs by immunoblotting analysis. In kind it is functional, cell-based. In general terms: In western blotting, separated proteins are transferred to a membrane and probed.

Molecules are shown by their SMILES. pIC50: −log10 of the molar value.

As a reminder, the pIC50 is the IC50 on a negative log10 scale, so that one unit is a factor of ten. The IC90 is the concentration at which the effect reaches the 90% level. As to `Cc1cn(-c2cc(NC(=O)c3ccc(C)c(Nc4nccc(-c5cccnc5)n4)c3)cc(C(F)(F)F)c2)cn1` [NILOTINIB], the negative logarithm of the IC50 (pIC50) in test [1] (BaF3, 72 h) was 7.64; in test [3] it was 6.60. Moreover, in test [1] (BaF3, time 72 hrs, condition chronic myelogenous leukemia), the IC90 stood at 48 nM. Besides, the Activity in test [2] and in test [4] was >90% each time. Besides, in test [5], the IC50 entry is “Not Active”.
